Series [1] is described as follows: interfacial tension of aqueous solution (0.1%) relative to cyclohexane. As to conditions: 25° C.; for γi (interfacial tension relative to cyclohexane): Table 6, aqueous solution at a concentration of 0.1%. Type of series: physicochemical. The protocol:
(§1) The surface tension of an aqueous solution containing 0.1% of this salt is 19.2 mN m^-1 at 25° C. The interfacial tension of an aqueous solution containing 0.1% of this salt, in equilibrium with cyclohexane, is 5.8 mN m^-1 at 25° C.
(§2) The surface tension of an aqueous solution containing 0.1% of this salt is 15.5 mN m^-1 at 25° C. The interfacial tension of an aqueous solution containing 0.1% of this salt, in equilibrium with cyclohexane, is 6.4 mN m.-1 at 25° C.
(§3) The surface tension Ys and interfacial tension Yi (relative to cyclohexane)of the ammonium salt in question, which are measured at 25° C. in aqueous solution at a concentration of 0.1%, are shown in the fourth and fifth columns of Table 6, the third column showing the yield.
(§4) The surface tension of an aqueous solution containing 0.1% of this salt is 15.5 mN m^-1 at 25° C. The interfacial tension in relation to cyclohexane in the same conditions is 5.5 mN m^-1 .
(§5) By proceeding in the same manner starting with 1,3-dibromopropane, the double quaternary salt of formula: [drawing 24] is obtained in a 98% yield. The surface tension of an aqueous solution containing 0.1% of this salt is 16.4 mN m^-1 at 25° C. The interfacial tension relative to cyclohexane in the same conditions is 7.7 mN m^1.

Series [2] can be described thus: surface tension of aqueous solution (0.1%). Type of series: physicochemical. As to conditions: for surface tension: aqueous solution containing 0.1%; for γs (surface tension): aqueous solution at a concentration of 0.1%. As for the experimental part:
as §1, §2
This yields the corresponding quaternary salts of formula: [drawing 19] which are colorless or slightly orange-colored pastes. These salts are completely water-soluble. Their yield and the surface tension at 25° C. of an aqueous solution at a concentration of 0.1% are shown in the second and third columns of Table 5.
as §3, §4, §5
The surface tension of an aqueous solution containing 0.1% of this N-oxide at 25° C. is 16.3 mN m^-1
The surface tension of an aqueous solution containing 1 0.1% of this betaine is 16.2 mN m^-1.

Setting [3] is: aqueous solution containing 0.1%, cyclohexane.

`C[N+](C)(C)CCNC(=S)NCCC(F)(F)C(F)(F)C(F)(F)C(F)(F)C(F)(F)C(F)(F)F`: the “interfacial tension in equilibrium with / relative to cyclohexane” value in series [1] (setting [3]) worked out at 5.8 mN m^-1. This compound displayed a surface tension in series [2] (25° C.) of 19.2 mN m^-1.
For the compound `C[N+](C)(C)CCNC(=S)NCCC(F)(F)C(F)(F)C(F)(F)C(F)(F)C(F)(F)C(F)(F)C(F)(F)C(F)(F)F`, the “interfacial tension in equilibrium with cyclohexane” value in series [1] (setting [3]) is given as 6.4 mN m.-1. In series [2] (25° C.), the surface tension amounted to 15.5 mN m^-1.
For `C[N+](C)(CCNC(=S)NCCC(F)(F)C(F)(F)C(F)(F)C(F)(F)C(F)(F)C(F)(F)F)Cc1ccccc1`, the “γs (surface tension)” value in series [2] (Table 5, 25° C.) turned out to be 17.4 mN m^-1.
As for `C[N+](C)(CCNC(=S)NCCC(F)(F)C(F)(F)C(F)(F)C(F)(F)C(F)(F)C(F)(F)F)CC[N+](C)(C)CCNC(=S)NCCC(F)(F)C(F)(F)C(F)(F)C(F)(F)C(F)(F)C(F)(F)F`, the “interfacial tension in equilibrium with / relative to cyclohexane” value in series [1] (setting [3]) is 5.5 mN m^-1. Further, the surface tension in series [2] (25° C.) was 15.5 mN m^-1.
On to `C[N+](C)(CCC[N+](C)(C)CCNC(=S)NCCC(F)(F)C(F)(F)C(F)(F)C(F)(F)C(F)(F)C(F)(F)F)CCNC(=S)NCCC(F)(F)C(F)(F)C(F)(F)C(F)(F)C(F)(F)C(F)(F)F`, for which, in series [1] (in the same conditions: aqueous solution containing 0.1%), the “interfacial tension relative to cyclohexane” value is 7.7 mN m^1. In series [2] (25° C.), this compound had a surface tension of 16.4 mN m^-1.
`C[N+](C)([O-])CCNC(=S)NCCC(F)(F)C(F)(F)C(F)(F)C(F)(F)C(F)(F)C(F)(F)F`: the surface tension in series [2] (25° C.) turned out to be 16.3 mN m^-1.
`C[N+](C)(CCNC(=S)NCCC(F)(F)C(F)(F)C(F)(F)C(F)(F)C(F)(F)C(F)(F)F)CC(=O)[O-]`: the surface tension in series [2] (temperature not given) stood at 16.2 mN m^-1.
As to `CCCCCCCC[N+](C)(C)CCNC(=S)NCCC(F)(F)C(F)(F)C(F)(F)C(F)(F)F` [C4 F9 / C8 H17], the “γi (interfacial tension relative to cyclohexane)” value in series [1] (cyclohexane) came to 0.7 mN m^-1. The “γs (surface tension)” value in series [2] (Table 6, 25° C.) was 19.7 mN m^-1.
For the compound `CCCCCCCCCCCC[N+](C)(C)CCNC(=S)NCCC(F)(F)C(F)(F)C(F)(F)C(F)(F)F` [C4 F9 / C12 H25], in series [1] (cyclohexane), the “γi (interfacial tension relative to cyclohexane)” value came to 1.9 mN m^-1. Moreover, the “γs (surface tension)” value in series [2] (Table 6, 25° C.) came out at 23.1 mN m^-1.
Taken in the same sequence, the figures for `CCCCCCCCCCCCCCCC[N+](C)(C)CCNC(=S)NCCC(F)(F)C(F)(F)C(F)(F)C(F)(F)F` [C4 F9 / C16 H33] were 2.1 mN m^-1 and 26.8 mN m^-1.
Taken in the same sequence, the figures for `CCCCCCCC[N+](C)(C)CCNC(=S)NCCC(F)(F)C(F)(F)C(F)(F)C(F)(F)C(F)(F)C(F)(F)F` [C6 F13 / C8 H17] were 1.4 mN m^-1 and 15.9 mN m^-1.
Take `CCCCCCCCCCCC[N+](C)(C)CCNC(=S)NCCC(F)(F)C(F)(F)C(F)(F)C(F)(F)C(F)(F)C(F)(F)F` [C6 F13 / C12 H25]: the “γi (interfacial tension relative to cyclohexane)” value in series [1] (cyclohexane) turned out to be 0.8 mN m^-1. Moreover, the “γs (surface tension)” value in series [2] (Table 6, 25° C.) came out at 17.5 mN m^-1.
For the compound `CCCCCCCCCCCCCCCC[N+](C)(C)CCNC(=S)NCCC(F)(F)C(F)(F)C(F)(F)C(F)(F)C(F)(F)C(F)(F)F` [C6 F13 / C16 H33], in series [1] (cyclohexane), the “γi (interfacial tension relative to cyclohexane)” value amounted to 0.7 mN m^-1. In series [2] (Table 6, 25° C.), the “γs (surface tension)” value came to 20.3 mN m^-1.
Taken in the same sequence, the figures for `CCCCC[N+](C)(C)CCNC(=S)NCCC(F)(F)C(F)(F)C(F)(F)C(F)(F)C(F)(F)C(F)(F)C(F)(F)C(F)(F)F` [C8 F17 / C5 H11] were 2 mN m^-1 and 16 mN m^-1.
Taken in the same sequence, the figures for `CCCCCCCC[N+](C)(C)CCNC(=S)NCCC(F)(F)C(F)(F)C(F)(F)C(F)(F)C(F)(F)C(F)(F)C(F)(F)C(F)(F)F` [C8 F17 / C8 H17] were 3.2 mN m^-1 and 15.9 mN m^-1.
As for `CCCCCCCCCCCC[N+](C)(C)CCNC(=S)NCCC(F)(F)C(F)(F)C(F)(F)C(F)(F)C(F)(F)C(F)(F)C(F)(F)C(F)(F)F` [C8 F17 / C12 H25], the “γi (interfacial tension relative to cyclohexane)” value in series [1] (cyclohexane) was 2.2 mN m^-1. The “γs (surface tension)” value in series [2] (Table 6, 25° C.) stood at 15.2 mN m^-1.
Consider `C=CC[N+](C)(C)CCNC(=S)NCCC(F)(F)C(F)(F)C(F)(F)C(F)(F)C(F)(F)C(F)(F)F` [CH2CHCH2Br], for which the “γs (surface tension)” value in series [2] (Table 5, 25° C.) came out at 16.4 mN m^-1.
Still for that read-out and setting: then `C[N+](C)(CCO)CCNC(=S)NCCC(F)(F)C(F)(F)C(F)(F)C(F)(F)C(F)(F)C(F)(F)F` [HOC2 H4Br], with 15.4 mN m^-1.

The values above are taken from patent US5026910A, “Polyfluoroalkyl nitrogen compounds, processes for their preparation and their use” (Societe Atochem, priority 1989, dated 1991).
